# Assays:
# LNCaP cells [1] = experiment: MTT growth inhibition assay, LNCaP; settings: for IC50: LNCaP, androgen-dependent prostate adenocarcinoma
# Experimental: (§1) The LNCaP (androgen-sensitive), PC3 (androgen in-dependent), human prostate cancer and normal human fibroblast 3T3 were obtained from American Type Culture Collection (Manassas, Va.) were maintained with RPMI 1640 medium containing 10% FBS and […] each of penicillin and streptomycin at […] in a humidified atmosphere with 5% CO2.
# (§2) The viability of the cells after treated with various chemicals was evaluated using MTT assay preformed in triplicate (Mosmann T. 1983. Rapid colorimetric assay for cellular growth and survival: application to proliferation and cytotoxicity assays”. Journal of immunological methods. 65 (1-2): 55-63). Briefly, the cancer cells (5×10^3) were incubated in 96-well plates containing […] of the culture medium. Cells were permitted to adhere for 12-18 h then washed with phosphate buffered saline (PBS). Solutions were always prepared fresh by dissolving 0.2% DMSO or K8 in culture medium and added to various kind of tumor. After 48 h of exposure, K8 containing medium was removed, washed with PBS and replaced by fresh medium. The cells in each well were then incubated in culture medium with […] MTT for 4 h. After the medium were removed, […] of DMSO and […] of glycine buffer (0.1 M glycine, 0.1 M NaCl, pH 10.5) were added to each well. Absorbance at 570 nm of the maximum was detected by a PowerWave X Microplate ELISA Reader (Bio-TeK Instruments, Winoski, Vt.). The absorbance for DMSO treated cells was considered as 100%. The results were determined by three independent experiments.
# Cytotoxicity of K8 (Isochaihulactone) on LNCaP cells was examined in the manner described above. The cells were treated with KS (Isochaihulactone), its Z-form, or its E-form of different concentrations ranging from 2.5 to 20 μM for 24 h.
# Cytotoxicities of Z-K8 (Isochaihulactone) on LNCaP (AR-dependent), and PC3 (AR-independent) tumor cell line were examined in the manner described above. The cells were treated with the Z- or E-form K8 (Isochaihulactone) of different concentrations ranging from 0.3125 to 5 μM for 24 h.
# PC3 cells = experiment: MTT growth inhibition assay, PC3; format: cell-based, human; settings: PC3, androgen-independent prostate adenocarcinoma
# Experimental: as §1, §2
# Cytotoxicities of Z-K8 (Isochaihulactone) on LNCaP (AR-dependent), and PC3 (AR-independent) tumor cell line were examined in the manner described above. […]
# [2] = tested on: lung cancer cell line A549; experiment: MTT growth inhibition assay, A549; format: cell-based, human; settings: A549, lung adenocarcinoma
# Experimental: (§3) The results were determined by three independent experiments.
# (§4) Besides, the above assay was also conducted on gastric cancer cell line NCI-N87, liver cancer cell line HepG2 and J5, lung cancer cell line A549, and oral cancer cell line OECM-1.
# [3] = tested on: oral cancer cell line OECM-1; experiment: MTT growth inhibition assay, OECM-1; format: cell-based; settings: OECM-1, oral squamous cell carcinoma
# Experimental: as §3, §4
# LNCaP xenografts = experiment: Antitumor activity in vivo, LNCaP xenograft; design: species or system mice; settings: for Tumor growth volume (mm^3): 30 mg/kg s.c. days 0-4
# Experimental: Xenograft mice as a model system to study cytotoxicity effect of isochaihulactone in vivo: the implantation of cancer cells (LNCaP) were carried out similarly to previous reports. Female congenital athymic BALB/c nude (nu/nu) mice were purchased from National Sciences Council (Taipei, Taiwan) and all procedures were performed in compliance with the standard operating procedures of the Laboratory Animal Center of China Medical University (Taichung, Taiwan). All experiments were carried out using 6-8-week old mice weighing 18-22 g. The animals were s.c. implanted with 1×10^7 cell sinto the back of mice. When the tumor reached 80-120 mm3 in volume, animals were divided randomly into control and test groups consisting of six mice per group (day 0). Daily s.c. administration of z-K8, dissolved in a vehicle of 20% Tween 80 in normal saline (v/v) was performed from days 0 to 4 far from the inoculated tumor sites (>1.5 cm). The control group was treated with vehicle only. The mice were weighed three times a week up to days 21-28 to monitor the effects and the same time the tumor volume was determined by measurement of the length (L) and width (W) of the tumor. The tumor volume at day n (TVn) was calculated as TV (mm3)=(L×W^2)/2. The relative tumor volume at day n (RTVn) versus day 0 was expressed according to the following formula: RTVn=TVn/TV0. Tumor regression (T/C(%)) in treated versus control mice was calculated using: T/C(%)=(mean RTV of treated group)/(mean RTV of control group)×100. Xenograft tumors as well as other vital organs of treated and control. The results are shown in Tables 6 and 7 and FIGS. 6 and 7.
# (§5) Assays were carried out to examine the inhibition of human xenografts growth in vivo by isochaihulactone. Briefly, LNCaP tumor-bearing mice were administered s.c. with vehicle control, 30 mg/kg E-K8, and Z-K8 respectively on days 0-4 for 5 days. The volumes of the tumors were measured. […] Scale bars, […]. Data represent means W S.D. of tumor volume at each time
# as §5, with “Z-K8. Again,” for “isochaihulactone. Briefly,”, “Z-K8 15” for “30”, “mg/kg” for “mg/kg E-K8, and Z-K8 respectively”, “time point.” for “time”
# [4] = tested on: liver cancer cell line HepG2; experiment: MTT growth inhibition assay, HepG2; format: cell-based; settings: HepG2, hepatocarcinoma
# Experimental: as §3, §4
# [5] = tested on: liver cancer cell line J5; experiment: MTT growth inhibition assay, J5; format: cell-based; settings: J5, hepatocarcinoma
# Experimental: as §3, §4
# LNCaP cells [6] = experiment: Cell cycle analysis by flow cytometry; format: cell-based, human; settings: 20 nM
# Experimental: The cell cycle was determined by flow cytometry with DNA staining to reveal the total amount of DNA. Approximately 5×10^5 of cells were incubated in various concentration of isochaihulactone for the indicated time. Cells were harvested by treating the cells with trypsin/EDTA. The cells were collected, washed with PBS, fixed with cold 70% ethanol overnight, and then stained with a solution containing […] PI, 10 mg/ml RNase A, and 0.1% Triton X-100 for 1 h in the dark. The cells will then pass through FACScan flow cytometer (equipped with a 488-nmargon laser) to measure the DNA content. The data was obtained and analyzed with CellQuest 3.0.1 (Becton Dickinson, Franklin Lakes, N.J.) and ModFitLT V2.0 software. The results are shown Table 4 and FIG. 4.
# Assays were carried out to examine the effect of Z-K8 in inducing G2/M phase arrest and apoptosis in LNCaP cells. Briefly, the cells were treated with different concentrations of Z-K8 (ranging from 0.25 to 2 μM) for 24 h. The cell cycle analysis was done according to the method described above. As shown in FIG. 4 and Table 4, Z-K8 induced cell cycle G2/M arrest in LNCaP cells.
smiles,measurement,setting,value
COc1cc(/C=C2/C(=O)OCC2Cc2ccc3c(c2)OCO3)cc(OC)c1OC (racemic) [E-K8],Viability (%),LNCaP cells [1]; 2.5 µM,86.2%
same,Viability (%),LNCaP cells [1]; 5 µM,72.9%
same,Viability (%),LNCaP cells [1]; 10 µM,69.8%
same,Viability (%),LNCaP cells [1]; 20 µM,65.3%
same,IC50,LNCaP cells [1],> 20 µM
same,IC50,PC3 cells,> 20 µM
same,IC50,[2],> 100 µM
same,IC50,[3],> 1 µM
same,Tumor growth volume (mm^3),LNCaP xenografts; day 1 after administration,0 mm^3
same,Tumor growth volume (mm^3),LNCaP xenografts; day 4 after administration,118.0 mm^3
same,Tumor growth volume (mm^3),LNCaP xenografts; day 7 after administration,137.1 mm^3
same,Tumor growth volume (mm^3),LNCaP xenografts; day 10 after administration,205.7 mm^3
same,Tumor growth volume (mm^3),LNCaP xenografts; day 13 after administration,313.7 mm^3
same,Tumor growth volume (mm^3),LNCaP xenografts; day 16 after administration,427.4 mm^3
same,Tumor growth volume (mm^3),LNCaP xenografts; day 19 after administration,504.7 mm^3
same,Tumor growth volume (mm^3),LNCaP xenografts; day 22 after administration,633.5 mm^3
same,Tumor growth volume (mm^3),LNCaP xenografts; day 25 after administration,658.6 mm^3
same,Tumor growth volume (mm^3),LNCaP xenografts; day 28 after administration,834.9 mm^3
same,Tumor growth volume (mm^3),LNCaP xenografts; day 31 after administration,894.9 mm^3
same,"tumor growth inhibition, in words","LNCaP xenografts; LNCaP tumor-bearing mice, 30 mg/kg s.c. days 0-4 (FIG. 6)",tumor growth inhibition effect
"COc1cc(/C=C2\C(=O)OC[C@@H]2Cc2ccc3c(c2)OCO3)cc(OC)c1OC [K8, isochaihulactone]",Viability (%),LNCaP cells [1]; 2.5 µM,67.4%
same,Viability (%),LNCaP cells [1]; 5 µM,43.6%
same,Viability (%),LNCaP cells [1]; 10 µM,40.9%
same,Viability (%),LNCaP cells [1]; 20 µM,21.0%
same,IC50,LNCaP cells [1],4.3 µM
same,IC50,PC3 cells,> 100 µM
same,IC50,[4],> 20 µM
same,IC50,[5],21.5 µM
same,IC50,[2],18.5 µM
"CC(=O)O[C@H]1C(=O)[C@@]2(C)[C@H]([C@H](OC(=O)c3ccccc3)[C@]3(O)C[C@H](OC(=O)[C@H](O)[C@@H](NC(=O)c4ccccc4)c4ccccc4)C(C)=C1C3(C)C)[C@]1(OC(C)=O)CO[C@@H]1C[C@@H]2O [toxal, reference compound]",Cells in phase (%) G0/G1,LNCaP cells [6],16.40%
same,Cells in phase (%) G2/M,LNCaP cells [6],40.23%
same,Cells in phase (%) S,LNCaP cells [6],3.95%
same,Cells in phase (%) Sub-G1,LNCaP cells [6],11.43%
